{
  "source": "patent US10335411B2",
  "about": "“Administration of ubiquitin-activating enzyme inhibitor and radiation” (Millennium Pharmaceuticals, Inc., priority 2014, dated 2019)",
  "origin": "cited, not measured here",
  "key": {"[1]": {"test_system": "mouse acute myeloid leukemia (AML model)", "conditions": "Xu et al., 2010; cited from earlier work"}, "[2]": {"test_system": "leukemia and myeloma cell lines", "conditions": "Xu et al., 2010; cited from earlier work"}},
  "data": [
    {"smiles": "O=C1NN(c2ccc(F)c(Cl)c2)C(=O)/C1=C\\c1ccc([N+](=O)[O-])o1", "note": "[PYZD-4409]", "values": [
      {"measurement": "anti-tumor activity", "setting": "[1]", "value": "induced anti-tumor activity"},
      {"measurement": "cell death", "setting": "[2]", "value": "induced cell death"}
    ]}
  ]
}
